Assay results published in publication PMC3970910 (Biochemistry, 2013).

Tests used:
[1] = system: mouse osteoclast; settings: mouse osteoclasts in vitro; cited from earlier work
[2] = system: human osteoclast; settings: human osteoclasts in vitro; cited from earlier work
[3] = system: GPR18; settings: cited from earlier work
[4] = system: untransfected U2OS cells; assay: ERK1/2 phosphorylation in untransfected U2OS cells; assay type: cell-based

Molecule | effect on osteoclast polarization and resorption produced by GPR55 agonists O-1602 and LPI [1] | effect on osteoclast polarization and resorption produced by GPR55 agonists O-1602 and LPI [2] | activity at GPR18 [3] | Induction of ERK1/2 phosphorylation in untransfected U2OS cells [4]
C=C(C)[C@@H]1CCC(C)=C[C@H]1c1c(O)cc(CCCCC)cc1O [CBD, cannabidiol] | attenuating the effects | attenuating the effects | low efficacy agonist | –
L-α-lysophosphatidylinositol [LPI] | – | – | – | neither LPI nor any of the antagonist compounds induced ERK1/2 phosphorylation
